According to patent US20190270778A1, “Cyclic Peptides As C5a Receptor Antagonists” (priority 2016, published 2019):
Like-named read-outs stand apart in the source and are kept apart here.

Key:
[1] = amide bond
[2] = amide bond, 18-membered ring
[3] = the molecule shown is the open-chain precursor, amide bond, 18-membered ring
[4] = the molecule shown is the open-chain precursor; amide bond; 18-membered ring

Compound `Cc1c(C)c(S(=O)(=O)NC(=N)NCCC[C@@H]2NC(=O)[C@H](Cc3cn(C(=O)OC(C)(C)C)c4ncccc34)NC(=O)[C@@H](C[C@H]3CC[C@@H](O)CC3)NC(=O)[C@@H]3C[C@@H](OC(C)(C)C)CN3C(=O)[C@@H](NC(=O)[C@H](Cc3ccccc3)N(CC(=O)OC(C)(C)C)C(=O)OC(C)(C)C)CCCNC2=O)c(C)c2c1OC(C)(C)C2` has a ring closure, yield of all isomers ([1]; from Cc1c(C)c(S(=O)(=O)NC(=N)NCCC[C@H](NC(=O)[C@H](Cc2cn(C(=O)OC(C)(C)C)c3ncccc23)NC(=O)[C@@H](C[C@H]2CC[C@@H](O)CC2)NC(=O)[C@@H]2C[C@@H](OC(C)(C)C)CN2)C(=O)NCCC[C@H](NC(=O)[C@H](Cc2ccccc2)N(CC(=O)OC(C)(C)C)C(=O)OC(C)(C)C)C(=O)O)c(C)c2c1OC(C)(C)C2) of 93.4%.
For “((S)-1-(((3R,6S,9S,15S,19R,20aS)-9-(3-guanidinopropyl)-19-hydroxy-3-(((1s,4S)-4-hydroxycyclohexyl)methyl)-6-((6-methoxy-1H-indol-3-yl)methyl)-1,4,7,10,16-pentaoxoicosahydropyrrolo[1,2-a][1,4,7,10,13]pentaazacyclooctadecin-15-yl)amino)-1-oxo-3-phenylpropan-2-yl)glycine”, the ring closure, yield after HPLC ([2]; with chain assembly) was 2.3%.
`Cc1c(C)c(S(=O)(=O)NC(=N)NCCC[C@@H]2NC(=O)[C@H](Cc3cn(C(=O)OC(C)(C)C)c4ccccc34)NC(=O)[C@@H](C[C@H]3CC[C@@H](O)CC3)NC(=O)[C@@H]3C[C@@H](OC(C)(C)C)CN3C(=O)[C@@H](NC(=O)[C@H](Cc3ccccc3)N(CC(=O)OC(C)(C)C)C(=O)OC(C)(C)C)CCCNC2=O)c(C)c2c1OC(C)(C)C2` showed a ring closure, yield of all isomers ([1]; from Cc1c(C)c(S(=O)(=O)NC(=N)NCCC[C@H](NC(=O)[C@H](Cc2cn(C(=O)OC(C)(C)C)c3ccccc23)NC(=O)[C@@H](C[C@H]2CC[C@@H](O)CC2)NC(=O)[C@@H]2C[C@@H](OC(C)(C)C)CN2)C(=O)NCCC[C@H](NC(=O)[C@H](Cc2ccccc2)N(CC(=O)OC(C)(C)C)C(=O)OC(C)(C)C)C(=O)O)c(C)c2c1OC(C)(C)C2, HATU, THF, 14.1 mM, 25.0 °C, 0.5 h) of 87%.
In the case of “H-Hyp(tBu)-dAla(3-(cis-4-hydroxycyclohexyl))-Trp(Boc)-Arg(Pbf)-Orn(Nα-[N-(CH2CO2tBu)-MePhe]; chain through Nδ)-OH”, the ring closure, crude yield [3] was 100%.
Compound “H-Hyp(CH2CO2tBu)-dAla(3-(cis-4-hydroxycyclohexyl))-Trp(Boc)-Arg(Pbf)-Orn(Nα-[Boc-N(CH2CO2tBu)-Phe]; chain through Nδ)-OH?” has a ring closure, crude yield [3] of 83%.
For “((31R,6S,9S,15S,19R,20aS)-6-((1H-indol-3-yl)methyl)-15-((S)-2-((carboxymethyl)amino)-3-phenylpropanamido)-9-(3-guanidinopropyl)-3-(((1s,4S)-4-hydroxycyclohexyl)methyl)-1,4,7,10,16-pentaoxoicosahydropyrrolo[1,2-a][1,4,7,10,13]pentaazacyclooctadecin-19-yl)glycine”, the ring closure, yield after HPLC ([2]; with chain assembly) was 19.4%.
For “H-Pro((4S)-NHBoc)-dAla(3-(cis-4-hydroxycyclohexyl))-Trp(Boc)-Arg(Pbf)-Orn(Nα-[Boc-N(CH2CO2tBu)-Phe]; chain through Nδ)-OH”, the ring closure, crude yield ([3]; HATU/NMM, THF/DMF) was 100%.
“H-Hyp(tBu)-dAla(3-(cis-4-hydroxycyclohexyl))-Ala(3-(1-Boc-1H-pyrrolo[2,3-b]pyridin-3-yl))-Arg(Pbf)-Orn(Nα-[Boc-N(CH2CO2tBu)-Phe]; chain through Nδ)-OH” showed a ring closure, crude yield [3] of 100%.
For “H-Hyp(tBu)-dAla(cis-4-hydroxycyclohexyl)-Trp(Boc,6-Et)-Arg(Pbf)-(Nδ)Orn(Nα-[Boc-N(CH2CO2tBu)-Phe])-OH”, the ring closure, isolated yield [4] was 42%.
For “((S)-1-(((31R,6S,9S,15S,19R,20aS)-6-((1H-indazol-3-yl)methyl)-9-(3-guanidinopropyl)-19-hydroxy-3-(((1s,4S)-4-hydroxycyclohexyl)methyl)-1,4,7,10,16-pentaoxoicosahydropyrrolo[1,2-a][1,4,7,10,13]pentaazacyclooctadecin-15-yl)amino)-1-oxo-3-phenylpropan-2-yl)glycine”, the ring closure, yield after HPLC ([2]; 2 steps) was 35%.
With “((S)-1-(((3R,6S,9S,15S,19R,20aS)-9-(3-guanidinopropyl)-19-hydroxy-3-(((1s,4S)-4-hydroxycyclohexyl)methyl)-6-((5-methoxy-1H-indol-3-yl)methyl)-1,4,7,10,16-pentaoxoicosahydropyrrolo[1,2-a][1,4,7,10,13]pentaazacyclooctadecin-15-yl)amino)-1-oxo-3-phenylpropan-2-yl)glycine” the ring closure, yield after HPLC ([2]; 2 steps) was 6%.
Compound “H-Pro((4S)-N(Boc)CH2CO2tBu)-dAla(3-(cis-4-hydroxycyclohexyl))-Trp(Boc)-Arg(Pbf)-Orn(Nα-[Boc-N(CH2CO2tBu)-Phe]; chain through Nδ)-OH” has a ring closure, crude yield [3] of 100%.
Work on `Cc1c(C)c(S(=O)(=O)NC(=N)NCCC[C@@H]2NC(=O)[C@H](Cc3cn(C(=O)OC(C)(C)C)c4ccccc34)NC(=O)[C@@H](C[C@H]3CC[C@@H](O)CC3)NC(=O)[C@@H]3C[C@@H](OCC(=O)OC(C)(C)C)CN3C(=O)[C@@H](NC(=O)[C@H](Cc3ccccc3)N(CC(=O)OC(C)(C)C)C(=O)OC(C)(C)C)CCCNC2=O)c(C)c2c1OC(C)(C)C2` yielded a ring closure, yield of all isomers ([1]; from Cc1c(C)c(S(=O)(=O)NC(=N)NCCC[C@H](NC(=O)[C@H](Cc2cn(C(=O)OC(C)(C)C)c3ccccc23)NC(=O)[C@@H](C[C@H]2CC[C@@H](O)CC2)NC(=O)[C@@H]2C[C@@H](OCC(=O)OC(C)(C)C)CN2)C(=O)NCCC[C@H](NC(=O)[C@H](Cc2ccccc2)N(CC(=O)OC(C)(C)C)C(=O)OC(C)(C)C)C(=O)O)c(C)c2c1OC(C)(C)C2) of 83%.
“H-Pro-dAla(3-(cis-4-hydroxycyclohexyl))-Ala(3-(1-Boc-1H-pyrrolo[2,3-b]pyridin-3-yl))-Arg(Pbf)-Orn(Nα-[Boc-N(CH2CO2tBu)-Phe]; chain through Nδ)-OH” gave a ring closure, crude yield [3] of 100%.
In the case of `CCc1ccc2c(C[C@@H]3NC(=O)[C@@H](C[C@H]4CC[C@@H](O)CC4)NC(=O)[C@@H]4C[C@@H](OC(C)(C)C)CN4C(=O)[C@@H](NC(=O)[C@H](Cc4ccccc4)N(CC(=O)OC(C)(C)C)C(=O)OC(C)(C)C)CCCNC(=O)[C@H](CCCNC(=N)NS(=O)(=O)c4c(C)c(C)c5c(c4C)CC(C)(C)O5)NC3=O)cn(C(=O)OC(C)(C)C)c2c1`, the ring closure, yield of all isomers ([1]; from CCc1ccc2c(C[C@H](NC(=O)[C@@H](C[C@H]3CC[C@@H](O)CC3)NC(=O)[C@@H]3C[C@@H](OC(C)(C)C)CN3)C(=O)N[C@@H](CCCNC(=N)NS(=O)(=O)c3c(C)c(C)c4c(c3C)CC(C)(C)O4)C(=O)NCCC[C@H](NC(=O)[C@H](Cc3ccccc3)N(CC(=O)OC(C)(C)C)C(=O)OC(C)(C)C)C(=O)O)cn(C(=O)OC(C)(C)C)c2c1) was 42%.
“((S)-1-(((3R,6S,9S,15S,19R,20aS)-6-((1H-indol-3-yl)methyl)-19-acetamido-9-(3-guanidinopropyl)-3-(((1s,4S)-4-hydroxycyclohexyl)methyl)-1,4,7,10,16-pentaoxoicosahydropyrrolo[1,2-a][1,4,7,10,13]pentaazacyclooctadecin-15-yl)amino)-1-oxo-3-phenylpropan-2-yl)glycine” showed a ring closure, yield after HPLC ([2]; 2 steps) of 20%.
Compound “((S)-1-(((3R,6S,9S,15S,19S,20aS)-6-((1H-indol-3-yl)methyl)-19-acetamido-9-(3-guanidinopropyl)-3-(((1s,4S)-4-hydroxycyclohexyl)methyl)-1,4,7,10,16-pentaoxoicosahydropyrrolo[1,2-a][1,4,7,10,13]pentaazacyclooctadecin-15-yl)amino)-1-oxo-3-phenylpropan-2-yl)glycine” has a ring closure, yield after HPLC ([2]; 2 steps) of 30%.
With “((S)-1-(((3R,6S,9S,15S,19R,20aS)-6-((1H-indol-3-yl)methyl)-19-amino-9-(3-guanidinopropyl)-3-(((1s,4S)-4-hydroxycyclohexyl)methyl)-1,4,7,10,16-pentaoxoicosahydropyrrolo[1,2-a][1,4,7,10,13]pentaazacyclooctadecin-15-yl)amino)-1-oxo-3-phenylpropan-2-yl)glycine” the ring closure, yield after HPLC ([2]; 2 steps) was 6.6%.
`Cc1c(C)c(S(=O)(=O)NC(=N)NCCC[C@@H]2NC(=O)[C@H](Cc3c[nH]c4ccccc34)NC(=O)[C@@H](C[C@H]3CC[C@@H](O)CC3)NC(=O)[C@@H]3C[C@H](NC(=O)OC(C)(C)C)CN3C(=O)[C@@H](NC(=O)[C@H](Cc3ccccc3)N(CC(=O)OC(C)(C)C)C(=O)OC(C)(C)C)CCCNC2=O)c(C)c2c1OC(C)(C)C2` showed a ring closure, yield of all isomers ([1]; from Cc1c(C)c(S(=O)(=O)NC(=N)NCCC[C@H](NC(=O)[C@H](Cc2c[nH]c3ccccc23)NC(=O)[C@@H](C[C@H]2CC[C@@H](O)CC2)NC(=O)[C@@H]2C[C@H](NC(=O)OC(C)(C)C)CN2)C(=O)NCCC[C@H](NC(=O)[C@H](Cc2ccccc2)N(CC(=O)OC(C)(C)C)C(=O)OC(C)(C)C)C(=O)O)c(C)c2c1OC(C)(C)C2) of 100%.
`Cc1c(C)c(S(=O)(=O)NC(=N)NCCC[C@@H]2NC(=O)[C@H](Cc3cn(C(=O)OC(C)(C)C)c4ccccc34)NC(=O)[C@@H](C[C@H]3CC[C@@H](O)CC3)NC(=O)[C@@H]3C[C@@H](OC(C)(C)C)CN3C(=O)[C@@H](NC(=O)OC(C)(C)C)CCCNC2=O)c(C)c2c1OC(C)(C)C2` showed a ring closure, yield of all isomers ([1]; from Cc1c(C)c(S(=O)(=O)NC(=N)NCCC[C@H](NC(=O)[C@H](Cc2cn(C(=O)OC(C)(C)C)c3ccccc23)NC(=O)[C@@H](C[C@H]2CC[C@@H](O)CC2)NC(=O)[C@@H]2C[C@@H](OC(C)(C)C)CN2)C(=O)NCCC[C@H](NC(=O)OC(C)(C)C)C(=O)O)c(C)c2c1OC(C)(C)C2, HATU, THF, 13.1 mM, 25.0 °C, 0.25 h) of 95.3%.
